# Measured values reported in patent US7417026B2, “Mobilization of hematopoietic cells” (Children's Hospital Medical Center, priority 2003, dated 2008).
# B1: p190-RhoA-C: p190GAP fused with the RhoA C-terminal sequence, expressed from a retroviral vector (protein)
# chain: VPLTTVVTPEKPIPIFIERCIEYIEATGLSTEGIYRVSGNKSEMESLQRQFDQDHNLDLAEKDFTVNTVAGAMKSFFSELPDPLVPYSMQIDLVEAHKINDREQKLHALKEVLKKFPKENHEVFKYVISHLNRVSHNNKVNLMTSENLSICFWPTLMRPDFSSMDALTATRSYQTIIELFIQQCPFFFYNRPISEPPGAALAPLQPWHPLSPSSPLHLLPVSHHLPSHLLQPLSPQCSHCSPLSSKPNTRCEPPQPRKQENQLSSLQARRGKKKSGCLVL
# modifications: chimeric fusion peptide/p190RhoGAP plus c-terminus tail section of the targeted GTPase
# Legend:
# HSC/progenitor cells [1] = assay: Mobilization of progenitor cells into peripheral blood, normal mice; format: in vivo; conditions: intraperitoneal injection, three doses
# Description: In FIG. 4, NSC23776, an inhibitor of GEF interaction with Rac proteins, or PBS as a control was administered by intraperitoneal injection to normal mice. At the indicated time points after injection, mice were bled and analyzed for the number of progenitor cells in the peripheral blood. Three doses of drug were administered. Each point represents samples from 6 mice, mean +/− SEM.
# HSC/progenitor cells [2] = assay: Mobilization of progenitor cells into peripheral blood, Rac2-/- mice; format: in vivo; conditions: intraperitoneal injection, three doses
# Description: In FIG. 5, NSC23776 or PBS as a control was administered by intraperitoneal injection to normal mice and mice with a genetic deficiency of Rac2 (Rac2−/− mice). At the indicated time points after injection, mice were bled and analyzed for the number of progenitor cells in the peripheral blood. Three doses of drug were administered. Each point represents samples from 6 mice, mean +/− SEM. For information on how to make and use NSC23776 and other small molecule inhibitors, see copending U.S. Provisional application 60/523,599, filed Nov. 20, 2003.
# WT HSC/P cells [3] = assay: Apoptosis of HSC/P following SCF stimulation (Annexin-V); format: cell-based, mice; conditions: concentration not given
# Text: By contrast, Rac2 appears to play no role in proliferation but regulated cell survival through the known anti-apoptotic protein Akt (Kennedy, et al. Genes Dev. 11, 701-13, 1997). Rac2 but not Rac1 deficiency was associated with increased frequency of both early (Annexin-V+) and late (Annexin V+/7AAD+) apoptotic cells (FIG. 2F) and expression of the Rac2 cDNA in Rac2−/− HSC/P led to a complete reversal of the apoptotic phenotype [4.4+0.8 vs. 6.6+1.3, vs. 3.1+0.7; % Annexin-V+ cells, WT vs. Rac2−/− vs. Rac−/− (Rac2+); p<0.01 Rac2−/− vs. Rac2−/− (Rac2+)]. Loss of both Rac1 and Rac2 activities was associated with a more severe apoptotic phenotype compared with deficiency of only Rac2 GTPase activity (FIG. 2D). […] The reduced Akt activation was close to normal in Rac1−/− cells.
# WT neutrophils [4] = conditions: 10 μM
# Description: (§2) It was next determined whether, in a manner similar to HSC/P, p42/p44 MAPKs were regulated via Rac proteins in neutrophils.
# WT neutrophils [5] = conditions: 10 μM; remark: listed apart in the source
# Description: Neutrophil chemotaxis in response to 10 μM formyl-methionyl-leucyl-phenylalanine (fMLP) was examined in Boyden chamber assays.
# WT neutrophils [6] = conditions: 10 μM; remark: listed apart in the source
# Description: as §2
# ERK = conditions: HSC/P cells, 30 μM
# WT HSC/P cells [7] = assay: Cell cycle analysis of HSC/P after SCF stimulation (cells in S+G2/M); format: cell-based, mice; conditions: 30 μM
# Description: To further analyze the mechanism, by which Rac1 affects proliferation in primitive HSC/P cells, cell cycle analysis was performed after stimulation with 100 ng/ml SCF. […] In contrast, the number of Rac2−/− cells in S+G2/M phases was similar to WT cells. The delay in entry into S phase was significant by 24 hours after SCF addition and persisted at 48 hours. This defect in cell cycle progression appeared directly related to Rac1 deficiency, since expression of Rac1 protein using retrovirus-mediated gene transfer restored cycle progression in Rac1−/− cells [33+4 vs. 19+3 vs. 34+3; % cells in S+G2/M, WT vs. Rac1−/− vs. Rac1−/− (Rac1+), p<0.01 Rac1−/− vs. Rac1−/− (Rac1+)].
# p42/p44 = conditions: neutrophils, 10 μM
# Description: as §2
# RhoA-F30L [8] = target: T1, RhoA-F30L (Homo sapiens, UniProt P61586, F30L); assay: RhoA-F30L-induced transformation; format: cell-based; conditions: for RhoA-F30L-induced transformation: high copy number retroviral vector SF91-EMCV-IRES-GFP
# T1 construct: expressed in transfected cells
# T1 sequence (P61586 whole entry F30L): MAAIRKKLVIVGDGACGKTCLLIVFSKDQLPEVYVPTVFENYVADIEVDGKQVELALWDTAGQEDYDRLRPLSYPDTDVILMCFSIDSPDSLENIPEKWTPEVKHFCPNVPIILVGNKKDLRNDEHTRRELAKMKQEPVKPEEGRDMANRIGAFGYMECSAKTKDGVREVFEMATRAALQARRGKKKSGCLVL
# Text: (§1) Like other cases of retrovirus-based gene transfer approach, the copy number of the introduced RhoGAP-Rho chimeras in the host cells will likely to be important for the efficacy of their application.
# RhoA-F30L [9] = target: T1, RhoA-F30L; assay: Downregulation of RhoA-F30L biochemical activity by retrovirally expressed RhoGAP chimera; format: cell-based; conditions: for biochemical activity of F30LRhoA: high copy number retroviral vector SF91-EMCV-IRES-GFP
# Text: as §1
molecule,measurement,setting,value
CCN(CC)CCCC(C)Nc1nc(C)cc(Nc2ccc3nc(C)cc(N)c3c2)n1 (stereo not drawn) [NSC23776],mobilization of HSC/progenitor cells,HSC/progenitor cells [1],does indeed lead to mobilization
same,mobilization of HSC/progenitor cells,HSC/progenitor cells [2],additive effect
N#CC(=C(/N)Sc1ccccc1N)/C(C#N)=C(\N)Sc1ccccc1N [U0126],increase in apoptosis,WT HSC/P cells [3],An increase in apoptosis was not seen
same,cortical actin formation,WT neutrophils [4],impaired cortical actin formation
same,cell migration,WT neutrophils [5],significant decrease
same,percentage of NBT+ cells,WT neutrophils [6],no change
same,ERK activation,ERK,inhibited
same,number of cells in S+G2/M,WT HSC/P cells [7],significant reduction
same,phosphorylation of p42/p44,p42/p44,abrogates
"p190: GAP-containing protein fraction of human p190, the predominant GAP for RhoA, expressed alone",RhoA-F30L-induced transformation,RhoA-F30L [8],did not affect
same,biochemical activity of F30LRhoA,RhoA-F30L [9],did not affect
B1,transforming activity of RhoA-F30L,RhoA-F30L [8]; expression with MIEG3,insufficient
same,RhoA-F30L-induced transformation,RhoA-F30L [8],specifically decrease
same,biochemical activity of RhoA-F30L,RhoA-F30L [9]; expression with MIEG3,insufficient
same,biochemical activity of F30LRhoA,RhoA-F30L [9],specifically decrease
